How the values were obtained:
[1] = system: low-density lipoproteins (LDL); assay: Antioxidant activity towards low-density lipoproteins (LDL): Cu2+-induced lipid peroxidation, MDA determined by HPLC; assay type: biochemical; conditions: human LDL, peroxidation induced by copper (II) ions (40 µM), 4 h at 37°C, pH 7.4; conjugate at 5, 10, 20, 50, 100 and 200 µM; compared with carnosine
Description: In order to test the antioxidant activity of carnosine and the carbohydrate derivative, freeze-dried human LDL (Sigma) was used as lipid peroxidation target.
The MDA standard was obtained by hydrolysis of the bis-dimethylacetal derivative (Sigma) in 1% sulphuric acid.
The process of peroxidation of humane LDLs (Sigma), suspended in 20 mM ammonium acetate at pH 7.4, was triggered by the addition of Cu^2+ (40 µM) to the protein suspension, followed by a 4 h incubation at 37°C (Free Radic. Res. 35, 953, 2001; J. Agr. Food Chem. 45, 3362, 1997). The lipid peroxidation inhibiting effect of the trehalose-carnosine conjugate was evaluated by adding this molecule to the LDL-Cu^2+ system at increasing concentrations (5, 10, 20, 50, 100 and 200 µM). The peroxidation reaction was interrupted by adding an equal volume of acetonitrile, followed by double extraction with chloroform.
For the determination of MDA, the end product of lipid peroxidation, the aqueous extract was analysed by HPLC, using an analysis method reported in Anal. Biochem. 197, 191, 1991 (data reported in figure 1).

[2] = system: carnosinase contained in rat brain homogenate; assay: Enzymatic hydrolysis by brain carnosinase (rat brain homogenate, histidine quantified fluorometrically with OPA); assay type: in vitro ADME; conditions: 20% rat brain homogenate, Tris buffer pH 8.1, 37°C for 2 h, compared with carnosine
Description: The breakdown of the carbohydrate conjugate of carnosine was measured by the following method: a 20% homogenate of rat brain was prepared with a 50 mM Tris buffer (Tris-(hydroxymethyl)-aminomethane) pH 8.1 containing 2 mM DTT (di-thio-threitol), and the mixture was centrifuged for 20 min at 19000 rpm. Part of the supernatant solution (192 µl) was incubated at 37°C for 2 h with the carnosine-trehalose conjugate, in a final volume of 300 µl. The reaction was interrupted by adding acetonitrile (300 µL), and the solution was subjected to double extraction with chloroform. The amount of histidine in the final solution was quantified fluorometrically after reacting with orthophthaldialdehyde OPA (Fluka), according to a method reported in Clin. Chim.

O=C(CCNC[C@H]1O[C@H](O[C@H]2O[C@H](CO)[C@@H](O)[C@H](O)[C@H]2O)[C@H](O)[C@@H](O)[C@@H]1O)N[C@@H](Cc1c[nH]cn1)C(=O)O [compound I, 6-(β-alanyl-L-histidine)-6-deoxy-α,α'-trehalose]
antioxidant activity (lipid peroxidation inhibiting effect) [1]: dose-dependent antioxidant effect, which was significantly greater than that of carnosine
resistance to enzymatic hydrolysis by carnosinase [2]: more resistant to the carnosinase contained in rat brain homogenate than carnosine
resistance to enzymatic hydrolysis by carnosinase ([2]; listed as compound according to the invention): more resistant to enzymatic hydrolysis than carnosine

From patent publication EP1860116A1, “Trehalose conjugate with carnosine having antioxidant activity, stable to enzymatic hydrolysis, procedure for its preparation, and pharmaceutical, cosmetic and nutraceutical compositions that contain it” (Universita' Degli Studi Di Catania, priority 2006, dated 2007)
